Columns and labels:
Salmonella Typhimurium [1] = test: Ames test on Salmonella Typhimurium, with or without an S9 mix activated with Arochlor; assay type: cell-based; details: strains TA 100, TA 98 and TA 1538; with or without an S9 mix (Arochlor activation)
From the text: Compounds of formula (I), in hair-dyeing, are substantially innocuous.

Salmonella Typhimurium [2] = details: Selects-Proton Magnetic Resonance, page 1, volume 18, 1981, number 95: 75096 f; cited from earlier work

| Compound | mutagenicity in the Ames test (Salmonella Typhimurium [1]) | mutagenic action disclosed in Chemical Abstracts (Salmonella Typhimurium [2]) |
| --- | --- | --- |
| COC1=CC(=Nc2ccc(N)cc2)C(N)=CC1=O [[(4'-amino)phenyl]-2-amino-5-methoxy-1,4-benzoquinoneimine] | highly mutagenic |  |
| COC1=CC(=Nc2ccc(N)c(C)c2)C(N)=CC1=O [[(4'-amino-3'-methyl)phenyl]-2-amino-5-methoxy-1,4-benzoquinoneimine] | highly mutagenic | highly mutagenic |
